Source: ChEMBL document CHEMBL5360658, “Discovery of MK-8768, a Potent and Selective mGluR2 Negative Allosteric Modulator” (ACS Med Chem Lett, 2023)
Values after ≈ are worked out from the molar mass of the structure shown.

How the values were obtained:
[1] = Apparent permeability in […] LLC-MDR1 cell; assay type: ADME, cell-based; settings: LLC-PK1
[2] = target: Voltage-gated inwardly rectifying potassium channel KCNH2 (Homo sapiens, UniProt Q12809); experiment: Displacement of [35S]-MK-499 from hERG expressed in HEK293 cells […]; assay type: toxicity, cell-based
Sequence of Voltage-gated inwardly rectifying potassium channel KCNH2 (Q12809 whole entry): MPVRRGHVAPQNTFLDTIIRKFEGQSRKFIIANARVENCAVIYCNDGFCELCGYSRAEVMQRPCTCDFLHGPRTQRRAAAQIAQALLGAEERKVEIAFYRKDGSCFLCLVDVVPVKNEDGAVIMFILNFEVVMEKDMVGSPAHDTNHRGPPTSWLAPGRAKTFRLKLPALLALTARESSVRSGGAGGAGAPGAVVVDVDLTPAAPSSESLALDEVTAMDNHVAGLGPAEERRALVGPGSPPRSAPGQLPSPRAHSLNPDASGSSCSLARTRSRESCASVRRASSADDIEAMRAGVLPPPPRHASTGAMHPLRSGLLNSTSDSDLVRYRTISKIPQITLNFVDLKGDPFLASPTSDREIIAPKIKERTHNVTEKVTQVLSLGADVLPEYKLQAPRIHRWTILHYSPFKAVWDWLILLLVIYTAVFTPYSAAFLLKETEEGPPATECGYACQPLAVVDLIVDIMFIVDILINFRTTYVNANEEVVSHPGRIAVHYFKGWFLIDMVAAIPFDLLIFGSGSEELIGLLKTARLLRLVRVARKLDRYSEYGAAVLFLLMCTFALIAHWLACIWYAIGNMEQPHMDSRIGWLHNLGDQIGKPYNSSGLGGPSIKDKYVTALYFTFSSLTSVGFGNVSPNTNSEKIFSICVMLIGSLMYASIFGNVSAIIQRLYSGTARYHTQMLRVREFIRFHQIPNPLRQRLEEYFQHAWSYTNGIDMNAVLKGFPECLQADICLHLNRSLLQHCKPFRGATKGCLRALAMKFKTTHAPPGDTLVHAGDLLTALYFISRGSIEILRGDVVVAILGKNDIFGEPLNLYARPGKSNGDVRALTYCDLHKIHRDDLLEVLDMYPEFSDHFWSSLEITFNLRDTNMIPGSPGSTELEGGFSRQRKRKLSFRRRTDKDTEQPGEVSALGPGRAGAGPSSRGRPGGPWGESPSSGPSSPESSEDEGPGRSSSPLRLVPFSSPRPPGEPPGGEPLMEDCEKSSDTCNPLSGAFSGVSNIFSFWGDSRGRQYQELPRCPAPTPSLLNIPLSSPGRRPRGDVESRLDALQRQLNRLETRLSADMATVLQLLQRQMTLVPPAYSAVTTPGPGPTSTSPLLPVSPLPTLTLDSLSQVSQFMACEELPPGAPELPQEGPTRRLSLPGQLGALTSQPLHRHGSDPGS

[3] = target: Metabotropic glutamate receptor 1 (Homo sapiens, UniProt Q13255); experiment: Negative allosteric modulation at mGluR1 receptor (unknown origin) assessed as effect on intracellular calcium flux measured after 5 min by Fluo-4AM dye based FLIPR analysis; assay type: functional, cell-based
Sequence of Metabotropic glutamate receptor 1 (Q13255 whole entry): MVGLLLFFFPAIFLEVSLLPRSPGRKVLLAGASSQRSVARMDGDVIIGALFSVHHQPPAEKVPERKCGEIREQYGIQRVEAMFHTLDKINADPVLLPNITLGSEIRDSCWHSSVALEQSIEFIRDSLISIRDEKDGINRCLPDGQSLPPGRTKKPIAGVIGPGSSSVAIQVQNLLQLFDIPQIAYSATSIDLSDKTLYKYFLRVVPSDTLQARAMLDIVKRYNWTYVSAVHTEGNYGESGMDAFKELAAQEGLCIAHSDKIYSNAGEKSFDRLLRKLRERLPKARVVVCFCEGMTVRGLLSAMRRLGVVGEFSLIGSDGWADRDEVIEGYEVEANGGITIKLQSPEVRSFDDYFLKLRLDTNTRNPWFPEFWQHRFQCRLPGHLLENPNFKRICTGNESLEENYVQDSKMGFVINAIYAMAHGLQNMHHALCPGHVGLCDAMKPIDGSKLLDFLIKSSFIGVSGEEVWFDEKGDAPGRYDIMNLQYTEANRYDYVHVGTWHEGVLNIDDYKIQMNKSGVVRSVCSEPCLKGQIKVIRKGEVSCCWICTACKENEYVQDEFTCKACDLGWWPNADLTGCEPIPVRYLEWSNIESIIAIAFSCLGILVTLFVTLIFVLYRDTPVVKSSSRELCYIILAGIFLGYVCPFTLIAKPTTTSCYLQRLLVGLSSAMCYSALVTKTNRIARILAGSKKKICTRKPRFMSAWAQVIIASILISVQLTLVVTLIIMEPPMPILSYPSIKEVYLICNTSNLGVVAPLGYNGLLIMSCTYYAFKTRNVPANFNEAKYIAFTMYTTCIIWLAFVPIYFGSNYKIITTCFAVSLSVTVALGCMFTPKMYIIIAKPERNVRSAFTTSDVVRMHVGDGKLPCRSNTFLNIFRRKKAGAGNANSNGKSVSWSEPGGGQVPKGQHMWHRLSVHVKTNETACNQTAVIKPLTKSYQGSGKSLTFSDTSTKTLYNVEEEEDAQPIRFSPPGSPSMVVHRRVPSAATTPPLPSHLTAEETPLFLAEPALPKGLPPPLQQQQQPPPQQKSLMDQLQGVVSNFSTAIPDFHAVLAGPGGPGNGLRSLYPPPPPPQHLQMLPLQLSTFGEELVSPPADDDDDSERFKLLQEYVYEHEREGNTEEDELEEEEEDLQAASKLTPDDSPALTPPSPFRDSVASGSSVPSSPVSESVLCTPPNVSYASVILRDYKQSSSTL

[4] = target: Metabotropic glutamate receptor 4 (Homo sapiens, UniProt Q14833); experiment: Negative allosteric modulation at mGluR4 receptor (unknown origin) assessed as effect on intracellular calcium flux measured after 5 min by Fluo-4AM dye based FLIPR analysis; assay type: functional, cell-based
Sequence of Metabotropic glutamate receptor 4 (Q14833 whole entry): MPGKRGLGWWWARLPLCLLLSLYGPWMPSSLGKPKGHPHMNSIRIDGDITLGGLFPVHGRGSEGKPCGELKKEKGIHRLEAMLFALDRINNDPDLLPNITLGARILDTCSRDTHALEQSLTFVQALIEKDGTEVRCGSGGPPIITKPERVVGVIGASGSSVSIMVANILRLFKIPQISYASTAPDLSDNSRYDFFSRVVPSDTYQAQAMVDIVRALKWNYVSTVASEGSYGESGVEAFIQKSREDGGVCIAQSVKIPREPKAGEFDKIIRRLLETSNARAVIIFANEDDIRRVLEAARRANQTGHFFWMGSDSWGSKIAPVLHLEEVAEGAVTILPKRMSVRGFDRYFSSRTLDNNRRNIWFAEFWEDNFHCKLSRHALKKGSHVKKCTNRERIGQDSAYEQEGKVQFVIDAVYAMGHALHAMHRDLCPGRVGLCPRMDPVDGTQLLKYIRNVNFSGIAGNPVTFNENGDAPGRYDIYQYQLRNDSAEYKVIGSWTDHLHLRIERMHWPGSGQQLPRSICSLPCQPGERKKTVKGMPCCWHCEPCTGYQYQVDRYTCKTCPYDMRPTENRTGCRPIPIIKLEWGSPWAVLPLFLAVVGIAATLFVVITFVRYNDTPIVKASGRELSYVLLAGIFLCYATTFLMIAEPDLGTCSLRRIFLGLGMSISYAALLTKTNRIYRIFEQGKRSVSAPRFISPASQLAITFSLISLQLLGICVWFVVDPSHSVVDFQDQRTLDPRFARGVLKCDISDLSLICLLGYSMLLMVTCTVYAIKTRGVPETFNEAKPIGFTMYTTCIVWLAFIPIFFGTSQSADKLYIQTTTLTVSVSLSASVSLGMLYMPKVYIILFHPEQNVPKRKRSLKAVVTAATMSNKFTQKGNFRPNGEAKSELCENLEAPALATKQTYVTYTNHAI

[5] = target: Metabotropic glutamate receptor 6 (Homo sapiens, UniProt O15303); experiment: Negative allosteric modulation at mGluR6 receptor (unknown origin) assessed as effect on intracellular calcium flux measured after 5 min by Fluo-4AM dye based FLIPR analysis; assay type: functional, cell-based
Sequence of Metabotropic glutamate receptor 6 (O15303 whole entry): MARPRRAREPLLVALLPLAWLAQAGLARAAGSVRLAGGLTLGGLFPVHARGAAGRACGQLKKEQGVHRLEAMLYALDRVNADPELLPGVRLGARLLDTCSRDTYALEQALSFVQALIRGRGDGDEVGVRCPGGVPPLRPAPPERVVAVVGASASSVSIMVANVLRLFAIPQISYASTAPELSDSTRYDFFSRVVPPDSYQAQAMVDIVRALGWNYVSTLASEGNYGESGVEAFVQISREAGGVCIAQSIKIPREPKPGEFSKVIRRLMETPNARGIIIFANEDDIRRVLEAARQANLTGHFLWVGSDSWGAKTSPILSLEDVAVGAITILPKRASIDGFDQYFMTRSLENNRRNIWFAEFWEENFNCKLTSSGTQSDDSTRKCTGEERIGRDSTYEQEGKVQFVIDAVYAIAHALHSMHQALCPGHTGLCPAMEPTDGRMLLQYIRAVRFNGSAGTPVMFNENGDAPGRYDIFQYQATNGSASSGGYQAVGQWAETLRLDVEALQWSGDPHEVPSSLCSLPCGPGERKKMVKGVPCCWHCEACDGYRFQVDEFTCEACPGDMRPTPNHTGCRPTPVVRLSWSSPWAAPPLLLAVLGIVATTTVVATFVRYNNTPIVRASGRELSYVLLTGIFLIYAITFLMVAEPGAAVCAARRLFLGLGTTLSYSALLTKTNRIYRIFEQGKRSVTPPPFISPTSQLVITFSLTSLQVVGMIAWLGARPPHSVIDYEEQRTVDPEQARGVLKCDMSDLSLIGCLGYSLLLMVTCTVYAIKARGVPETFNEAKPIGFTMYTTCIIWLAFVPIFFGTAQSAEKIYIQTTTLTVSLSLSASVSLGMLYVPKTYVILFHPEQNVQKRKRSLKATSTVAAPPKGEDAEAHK

[6] = target: Metabotropic glutamate receptor 8 (Homo sapiens, UniProt O00222); experiment: Negative allosteric modulation at mGluR8 receptor (unknown origin) assessed as effect on intracellular calcium flux measured after 5 min by Fluo-4AM dye based FLIPR analysis; assay type: functional, cell-based
[7] = Mutagenicity in Salmonella typhimurium in presence of S9 fraction by Ames test; assay type: toxicity, subcellular; settings: salmonella enterica subsp. enterica serovar typhimurium
Cytochrome P450 1A2 = target: T1, Cytochrome P450 1A2 (Homo sapiens, UniProt P05177); experiment: […] of CYP1A2 (unknown origin); assay type: ADME
T1 sequence (P05177 whole entry): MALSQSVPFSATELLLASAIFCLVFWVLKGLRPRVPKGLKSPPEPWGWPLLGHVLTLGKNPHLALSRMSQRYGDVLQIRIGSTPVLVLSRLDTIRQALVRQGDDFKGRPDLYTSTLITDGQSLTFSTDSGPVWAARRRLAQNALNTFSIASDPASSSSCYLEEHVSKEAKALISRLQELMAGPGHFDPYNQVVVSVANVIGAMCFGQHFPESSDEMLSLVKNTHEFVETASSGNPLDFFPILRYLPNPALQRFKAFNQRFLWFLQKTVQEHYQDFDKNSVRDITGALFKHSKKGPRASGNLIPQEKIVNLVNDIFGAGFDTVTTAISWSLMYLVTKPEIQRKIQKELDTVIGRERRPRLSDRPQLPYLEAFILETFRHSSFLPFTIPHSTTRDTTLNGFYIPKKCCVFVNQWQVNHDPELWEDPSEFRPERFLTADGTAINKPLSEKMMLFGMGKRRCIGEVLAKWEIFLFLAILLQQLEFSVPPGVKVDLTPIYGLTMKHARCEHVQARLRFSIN

Cytochrome P450 2B6 = target: T2, Cytochrome P450 2B6 (Homo sapiens, UniProt P20813); experiment: […] of CYP2B6 (unknown origin); assay type: ADME
T2 sequence (P20813 whole entry): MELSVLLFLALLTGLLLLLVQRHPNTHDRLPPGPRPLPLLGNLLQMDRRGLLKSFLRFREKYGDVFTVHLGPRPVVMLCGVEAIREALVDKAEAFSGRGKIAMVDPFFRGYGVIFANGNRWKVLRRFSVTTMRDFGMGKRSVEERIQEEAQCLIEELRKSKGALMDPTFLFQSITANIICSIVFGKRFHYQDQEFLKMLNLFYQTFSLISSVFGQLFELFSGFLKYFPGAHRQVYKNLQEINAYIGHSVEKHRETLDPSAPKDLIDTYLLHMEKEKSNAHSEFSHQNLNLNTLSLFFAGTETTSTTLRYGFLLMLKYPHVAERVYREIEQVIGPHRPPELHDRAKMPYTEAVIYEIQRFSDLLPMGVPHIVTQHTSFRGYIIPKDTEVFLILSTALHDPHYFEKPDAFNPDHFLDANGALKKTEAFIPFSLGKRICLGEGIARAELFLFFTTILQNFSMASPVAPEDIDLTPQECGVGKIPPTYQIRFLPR

Cytochrome P450 2C8 = target: T3, Cytochrome P450 2C8 (Homo sapiens, UniProt P10632); experiment: […] of CYP2C8 (unknown origin); assay type: ADME
T3 sequence (P10632 whole entry): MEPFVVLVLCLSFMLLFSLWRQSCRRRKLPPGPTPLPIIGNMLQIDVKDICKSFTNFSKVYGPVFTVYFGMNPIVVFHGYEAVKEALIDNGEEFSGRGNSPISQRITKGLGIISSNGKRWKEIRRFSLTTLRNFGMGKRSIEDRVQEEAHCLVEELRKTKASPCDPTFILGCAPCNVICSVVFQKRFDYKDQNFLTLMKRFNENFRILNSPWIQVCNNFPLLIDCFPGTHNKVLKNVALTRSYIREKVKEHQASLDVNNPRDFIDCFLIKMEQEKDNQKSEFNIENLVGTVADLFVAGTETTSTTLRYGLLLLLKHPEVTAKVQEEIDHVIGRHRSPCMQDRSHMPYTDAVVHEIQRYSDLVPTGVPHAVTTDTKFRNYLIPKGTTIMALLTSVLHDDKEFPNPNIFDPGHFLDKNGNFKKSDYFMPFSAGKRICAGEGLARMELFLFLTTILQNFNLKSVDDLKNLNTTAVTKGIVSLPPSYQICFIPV

Cytochrome P450 2C9 = Cytochrome P450 2C9 (Homo sapiens, UniProt P11712); experiment: […] of CYP2C9 (unknown origin); assay type: ADME
Cytochrome P450 2C19 = Cytochrome P450 2C19 (Homo sapiens, UniProt P33261); experiment: […] of CYP2C19 (unknown origin); assay type: ADME
Cytochrome P450 2D6 = Cytochrome P450 2D6 (Homo sapiens, UniProt P10635); experiment: […] of CYP2D6 (unknown origin); assay type: ADME
Sequence of Cytochrome P450 2D6 (P10635 whole entry): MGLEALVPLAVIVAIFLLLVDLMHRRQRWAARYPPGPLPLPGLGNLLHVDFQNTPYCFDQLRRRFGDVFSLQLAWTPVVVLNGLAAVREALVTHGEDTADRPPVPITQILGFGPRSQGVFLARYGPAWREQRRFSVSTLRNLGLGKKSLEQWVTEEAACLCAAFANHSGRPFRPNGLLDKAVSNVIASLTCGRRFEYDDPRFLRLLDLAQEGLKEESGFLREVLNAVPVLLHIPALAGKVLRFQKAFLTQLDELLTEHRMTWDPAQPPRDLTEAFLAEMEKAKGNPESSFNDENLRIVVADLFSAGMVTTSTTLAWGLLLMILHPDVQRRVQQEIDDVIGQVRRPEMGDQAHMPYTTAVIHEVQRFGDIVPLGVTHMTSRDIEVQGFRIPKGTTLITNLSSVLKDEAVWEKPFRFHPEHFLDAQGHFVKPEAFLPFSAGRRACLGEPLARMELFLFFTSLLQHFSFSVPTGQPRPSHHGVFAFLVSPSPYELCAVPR

Cytochrome P450 3A4 = Cytochrome P450 3A4 (Homo sapiens, UniProt P08684); experiment: […] of CYP3A4 (unknown origin); assay type: ADME
[8] = Solubility of the compound in SGF buffer; assay type: physicochemical
[9] = Solubility of the compound in FaSSIF; assay type: physicochemical
[10] = Solubility of the compound in FeSSIF; assay type: physicochemical
[11] = Fraction unbound in human plasma; assay type: ADME, cell-free
[12] = Fraction unbound in rat plasma; assay type: ADME, cell-free
[13] = Fraction unbound in dog plasma; assay type: ADME, cell-free, Canis lupus familiaris
[14] = Fraction unbound in monkey plasma; assay type: ADME, cell-free, Macaca mulatta; settings: rhesus monkey
[15] = Clearance in rat at 1 mg/kg, iv; assay type: ADME, organism-based; settings: in vivo
[16] = Volume of distribution in rat at 1 mg/kg, iv; assay type: ADME, organism-based; settings: in vivo
[17] = Effective half life in rat at 1 mg/kg, iv; assay type: ADME, organism-based; settings: in vivo, read-out: t1/2eff (converted)
[18] = Oral bioavailability in rat at 2 mg/kg; assay type: ADME, organism-based; settings: in vivo
[19] = Clearance in dog at 0.25 mg/kg, iv; assay type: ADME, organism-based, Canis lupus familiaris; settings: in vivo
[20] = Volume of distribution in dog at 0.25 mg/kg, iv; assay type: ADME, organism-based, Canis lupus familiaris; settings: in vivo
[21] = Effective half life in dog at 0.25 mg/kg, iv; assay type: ADME, organism-based, Canis lupus familiaris; settings: in vivo, read-out: t1/2eff (converted)
[22] = Oral bioavailability in dog at 0.5 mg/kg; assay type: ADME, organism-based, Canis lupus familiaris; settings: in vivo
[23] = Clearance in monkey at 0.5 mg/kg, iv; assay type: ADME, organism-based, Macaca mulatta; settings: rhesus monkey, in vivo
[24] = Volume of distribution in monkey at 0.5 mg/kg, iv; assay type: ADME, organism-based, Macaca mulatta; settings: rhesus monkey, in vivo
[25] = Effective half life in monkey at 0.5 mg/kg, iv; assay type: ADME, organism-based, Macaca mulatta; settings: rhesus monkey, in vivo, read-out: t1/2eff (converted)
[26] = Unbound plasma concentration in rhesus monkey at 0.01 to 1 mg/kg, IM; assay type: ADME, organism-based, Macaca mulatta; settings: in vivo, dose 0.01-1 mg/kg

`C[C@@H]1CN(Cc2ccc3c(-c4cnn(C)c4)cc(C(N)=O)nc3c2)C[C@H](C(F)(F)F)O1` gave a Papp [1] of 32 ×10⁻⁶ cm/s, an IC50 [2] of 22 µM and an IC50 [3] of over 10 µM. For the same molecule, the IC50 [4] was over 10 µM, the IC50 [5] was over 10 µM and the IC50 [6] was over 10 µM. The Activity [7] was “Non-Toxic”, the IC50 (Cytochrome P450 1A2) was over 26 µM and the IC50 (Cytochrome P450 2B6) was over 26 µM. The IC50 (Cytochrome P450 2C8) was over 26 µM, the IC50 (Cytochrome P450 2C9) was over 26 µM and the IC50 (Cytochrome P450 2C19) was over 26 µM. The IC50 (Cytochrome P450 2D6) was over 26 µM, the IC50 (Cytochrome P450 3A4) was over 26 µM and the solubility [8] was 4100 µg/mL (≈ 9.46 mM). The solubility [9] was 440 µg/mL (≈ 1.02 mM), the solubility [10] was 2100 µg/mL (≈ 4.85 mM) and the fraction unbound [11] was 0.025. For the same molecule, the fraction unbound [12] was 0.04, the fraction unbound [13] was 0.045 and the fraction unbound [14] was 0.043. For the same molecule, the clearance [15] was 36 mL/min/kg, the Vd [16] was 5.7 L/kg and the half-life [17] was 1.8 h. For the same molecule, the bioavailability [18] was 32%, the clearance [19] was 24 mL/min/kg and the Vd [20] was 7.3 L/kg. The half-life [21] was 3.3 h, the bioavailability [22] was 34% and the clearance [23] was 22 mL/min/kg. The Vd [24] was 3.2 L/kg, the half-life [25] was 1.7 h and the “Cp(f)” value [26] was 3 nM.
